Assay results published in PubChem BioAssay AID192 (DTP/NCI, 2004).
“And” between values parts separate entries of the source, which are not always exact repeats. Identical values can stand only once. Inconclusive results and toxic doses are left out. The calls were made as follows: active = survival T/C of 150% or more; inactive = T/C below 125% in these data.

Tested on: BDF1 mice, B16 melanoma ip, median survival T/C
Test: NCI In Vivo Anticancer Drug Screen. Data for tumor model B16 Melanoma (intraperitoneal) in B6D2F1 (BDF1) mice
Conditions: endpoint: median survival time, higher = longer survival
How it was run: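 Compounds were tested in mice carrying transplantable tumors. Survival or tumor size was recorded, and each value is the treated-group measurement (T) divided by that of the vehicle-treated control group (C).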

[1] = dose: 6.25 mg/kg/injection, schedule: Q01DX009 (ip), vehicle: saline
[2] = dose: 12.5 mg/kg/injection, schedule: Q01DX009 (ip), vehicle: saline
[3] = dose: 25.0 mg/kg/injection, schedule: Q01DX009 (ip), vehicle: saline
[4] = dose: 50.0 mg/kg/injection, schedule: Q01DX009 (ip), vehicle: Klucel (hydroxypropylcellulose) (HPC)
[5] = dose: 100.0 mg/kg/injection, schedule: Q01DX009 (ip), vehicle: Klucel (hydroxypropylcellulose) (HPC)
[6] = dose: 200.0 mg/kg/injection, schedule: Q01DX009 (ip), vehicle: Klucel (hydroxypropylcellulose) (HPC)
[7] = dose: 12.5 mg/kg/injection, schedule: Q01DX009 (ip), vehicle: Klucel (hydroxypropylcellulose) (HPC)
[8] = dose: 25.0 mg/kg/injection, schedule: Q01DX009 (ip), vehicle: Klucel (hydroxypropylcellulose) (HPC)
[9] = dose: 12.5 mg/kg/injection, schedule: Q01DX009 (ip), vehicle: saline with Tween-80
[10] = dose: 25.0 mg/kg/injection, schedule: Q01DX009 (ip), vehicle: saline with Tween-80
[11] = dose: 50.0 mg/kg/injection, schedule: Q01DX009 (ip), vehicle: saline with Tween-80
[12] = dose: 100.0 mg/kg/injection, schedule: Q01DX009 (ip), vehicle: saline with Tween-80
[13] = dose: 6.25 mg/kg/injection, schedule: Q01DX009 (ip), vehicle: Klucel (hydroxypropylcellulose) (HPC)
[14] = dose: 400.0 mg/kg/injection, schedule: Q01DX009 (ip), vehicle: Klucel (hydroxypropylcellulose) (HPC)
[15] = dose: 200.0 mg/kg/injection, schedule: Q01DX009 (ip), vehicle: saline with Tween-80
[16] = dose: 50.0 mg/kg/injection, schedule: Q01DX009 (ip), vehicle: saline
[17] = dose: 100.0 mg/kg/injection, schedule: Q01DX009 (ip), vehicle: saline
[18] = dose: 3.12 mg/kg/injection, schedule: Q01DX009 (ip), vehicle: saline

Measured: T/C

CC(=O)OCC1OC(n2cnc3c(=S)nc(N)[nH]c32)C(OC(C)=O)C1OC(C)=O (centres undefined)
inactive: [1] 118 % of control | [2] 105 % of control | [3] 101 % of control

COc1cc(OC)c(OC)cc1/C=C\c1ccc2ccccc2[n+]1C
inactive: [1] 93 % of control | [2] 100 % of control | [3] 97 % of control

CCCC(C#N)(c1ccccc1)c1ccccc1
inactive: [4] 90 % of control | [5] 90 % of control | [6] 93 % of control

S=C(S)Nc1cccc2ccccc12
inactive: [7] 96 % of control | [8] 93 % of control | [4] 103 % of control

CC1(C)N=C(N)N=C(N)N1c1ccc2ccccc2c1
inactive: [9] 90 % of control | dose: 22.0 mg/kg/injection, schedule: Q01DX009 (ip), vehicle: Klucel (hydroxypropylcellulose) (HPC) 87 % of control | [10] 94 % of control | dose: 33.0 mg/kg/injection, schedule: Q01DX009 (ip), vehicle: Klucel (hydroxypropylcellulose) (HPC) 91 % of control | [4] 119 % of control | [11] 98 % of control

Cn1nc(-c2ccccc2)nc1[N+](=O)[O-]
inactive: [9] 100 % of control | [10] 96 % of control | [11] 106 % of control | [12] 86 % of control

C=C1C(=O)O[C@H]2C1[C@H](OC(=O)/C(C)=C\COC(C)=O)C[C@]1(CO1)[C@@H]1[C@H](O)[C@H]3O[C@@]3(C)[C@@H]12 (some centres undefined)
inactive: dose: 3.12 mg/kg/injection, schedule: Q01DX009 (ip), vehicle: other 112 % of control | dose: 6.25 mg/kg/injection, schedule: Q01DX009 (ip), vehicle: other 104 % of control | dose: 12.5 mg/kg/injection, schedule: Q01DX009 (ip), vehicle: other 107 % of control | dose: 25.0 mg/kg/injection, schedule: Q01DX009 (ip), vehicle: other 106 % of control | dose: 50.0 mg/kg/injection, schedule: Q01DX009 (ip), vehicle: other 109 % of control

CC(=O)OC1OC(=O)C(C)(C(C)=O)C1C (centres undefined)
inactive: dose: 2.5 mg/kg/injection, schedule: Q01DX009 (ip), vehicle: distilled water + alcohol 104 % of control | dose: 5.0 mg/kg/injection, schedule: Q01DX009 (ip), vehicle: distilled water + alcohol 102 % of control | dose: 10.0 mg/kg/injection, schedule: Q01DX009 (ip), vehicle: distilled water + alcohol 104 % of control

Cc1noc(C)c1CON
inactive: dose: 12.5 mg/kg/injection, schedule: Q04DX003 (ip), vehicle: saline 118 % of control | dose: 25.0 mg/kg/injection, schedule: Q04DX003 (ip), vehicle: saline 118 % of control | dose: 50.0 mg/kg/injection, schedule: Q04DX003 (ip), vehicle: saline 123 % of control

ClCc1ccc(Oc2ccc(CCl)cc2)cc1
inactive: [13] 101 % of control | [7] 101 % of control and 115 % of control | [8] 105 % of control | [4] 115 % of control and 124 % of control

Cc1cc(Cl)ccc1NC(=O)c1cccc(C(=O)Nc2ccc(Cl)cc2C)c1
inactive: [5] 100 % of control | [6] 100 % of control | [14] 96 % of control

CC1CC(NC(=O)/C=C/C(=O)O)CC(C)(C)C1 (centres undefined)
inactive: [5] 93 % of control | [6] 95 % of control | [14] 93 % of control

COC(=O)CC(=O)c1ccc(C)cc1
inactive: [5] 103 % of control | [6] 95 % of control

Cc1cc(CN)c(C)cc1CN
inactive: dose: 44.0 mg/kg/injection, schedule: Q01DX009 (ip), vehicle: saline 91 % of control

CN(C)c1ccc2cc(S(=O)(=O)O)cc(O)c2c1
inactive: [12] 97 % of control | [15] 94 % of control

COc1ccc2[nH]c3c(C)c4cc[n+](C)c(C)c4cc3c2c1
inactive: dose: 10.0 mg/kg/injection, schedule: Q04DX003 (ip), vehicle: water 113 % of control | dose: 20.0 mg/kg/injection, schedule: Q04DX003 (ip), vehicle: water 98 % of control | dose: 40.0 mg/kg/injection, schedule: Q04DX003 (ip), vehicle: water 105 % of control | dose: 80.0 mg/kg/injection, schedule: Q04DX003 (ip), vehicle: water 117 % of control

Cc1cccc(CN)n1
inactive: [16] 105 % of control | [17] 118 % of control

O=C1N[C@@H]2C(=C[C@H](O)[C@@H](O)[C@H]2O)c2cc3c(c(O)c21)OCO3
inactive: dose: 2.5 mg/kg/injection, schedule: Q01DX009 (ip), vehicle: saline with Tween-80 111 % of control

O=C(O)/C=C/C(=O)Nc1ccc(N=Nc2ccccc2)cc1
inactive: [4] 104 % of control | [5] 105 % of control | [6] 97 % of control

O=C(NC(C(=O)O)c1ccccc1)OCc1ccccc1 (centres undefined)
inactive: [11] 97 % of control | [12] 98 % of control | [15] 98 % of control

NC(N)=NC(N)=Nc1ccc(-c2ccc(N=C(N)N=C(N)N)cc2)cc1
inactive: dose: 6.25 mg/kg/injection, schedule: Q01DX009 (ip), vehicle: saline with Tween-80 102 % of control | [9] 96 % of control

COc1cccc2c1C(=O)c1c(O)c3c(c(O)c1C2=O)C[C@@](O)(/C(CO)=N/NC(=O)c1ccc(Cl)c(Cl)c1)C[C@@H]3OC1CC(NC(=S)Nc2ccc(F)cc2)C(O)C(C)O1 (some centres undefined)
inactive: dose: 0.4 mg/kg/injection, schedule: Q01DX009 (ip), vehicle: water 101 % of control | dose: 0.8 mg/kg/injection, schedule: Q01DX009 (ip), vehicle: water 112 % of control | dose: 1.6 mg/kg/injection, schedule: Q01DX009 (ip), vehicle: water 111 % of control | dose: 3.2 mg/kg/injection, schedule: Q01DX009 (ip), vehicle: water 106 % of control

COC(=O)CCCCCNC(=O)NCCCCCC(=O)OC
inactive: dose: 100.0 mg/kg/injection, schedule: Q04DX003 (ip), vehicle: Klucel (hydroxypropylcellulose) (HPC) 86 % of control | dose: 200.0 mg/kg/injection, schedule: Q04DX003 (ip), vehicle: Klucel (hydroxypropylcellulose) (HPC) 95 % of control | dose: 400.0 mg/kg/injection, schedule: Q04DX003 (ip), vehicle: Klucel (hydroxypropylcellulose) (HPC) 91 % of control

CC1(C)N=C(N)N=C(N)N1c1ccc(F)c(C(F)(F)F)c1
inactive: [18] 96 % of control | [1] 118 % of control | dose: 12.0 mg/kg/injection, schedule: Q01DX009 (ip), vehicle: saline 120 % of control

CNc1nc2c(N)ncnc2n1C1OC(CO)C(O)C1O (centres undefined)
inactive: dose: 1.56 mg/kg/injection, schedule: Q01DX009 (ip), vehicle: saline 94 % of control | [18] 90 % of control | [1] 95 % of control | [2] 101 % of control | [3] 101 % of control

CCCc1c2cc(OC)c(OC)cc2cc2c3cc(OC)c(OC)cc3cc[n+]12 (tested in a mixture with another compound)
inactive: [13] 100 % of control | [7] 96 % of control | [8] 100 % of control

CCC(NC(=O)OC(C)(C)C)C(=O)O (centres undefined)
inactive: [1] 100 % of control | [2] 95 % of control | [3] 95 % of control | [16] 88 % of control and 96 % of control

Clc1ccc2c(c1)C(N1CCOCC1)c1cc(Cl)cc(Cl)c1-2 (centres undefined)
inactive: [17] 102 % of control | dose: 200.0 mg/kg/injection, schedule: Q01DX009 (ip), vehicle: saline 95 % of control | dose: 400.0 mg/kg/injection, schedule: Q01DX009 (ip), vehicle: saline 90 % of control | dose: 800.0 mg/kg/injection, schedule: Q01DX009 (ip), vehicle: saline 90 % of control
